≈ marks a conversion by molar mass, not a printed value. Blank lines part the entries; values can stand above or below the molecule they belong to.
Tests used:
[1] = MetID on in vivo dog samples (plasma, urine); parameters: species or system dog (beagles); settings: for % of the total MS area, Dog Plasma (Female): after Cmpd 28, sampled at 3 h and 30 min
Description: (§1) The workup procedure could vary somewhat depending on the compound and dose, but the general procedure was as follows: Two volumes of ACN/methanol (1:1, v:v) were added to the plasma samples and vortex-mixed to precipitate the proteins. Thereafter, the samples were centrifuged for 10 min (at 10,000 g and 4 °C), and the supernatants were diluted with one volume of water. The urine samples were diluted with one volume of ACN/methanol (1:1, v:v) and centrifuged for 10 min (at 10,000 g and 4 °C), followed by a 1:1 dilution with water.
(§2) Structural characterization of metabolites and metabolite profiling were performed using the Waters Acquity ultraperformance liquid chromatography (UPLC) system fitted to a Waters High-Resolution Mass Spectrometer (MS) (Xevo G2-S, Synapt G2-Si, or a Synapt XS MS). The Waters MS systems, equipped with an electrospray ionization (ESI) source, were operated in positive-ion sensitivity mode over a mass range m/z 50–1200 and in negative-ion sensitivity mode over a mass range m/z of 50–1200.
(§3) The reversed-phase gradient elution was performed on an Acquity U(H)-PLC BEH C18 column (2.1 × 100 mm, 1.7 μm, Waters) set at 45 °C. The mobile phases consisted of 0.1% FA in water (A) and ACN (B). […] The injection volume was 2 μL. The MS settings were optimized for the respective MS instrument. […] A scan time of 0.1 s was used, and data were acquired in centroid mode. Collision energy was set to “off” for the low-energy function, whereas in the high-energy MSe functions, the collision energies were typically ramped from 15 to 35 V in the trap cell, with constant collision energies of 20 V in their transfer cells. Cone voltage was set to 25 V for both low- and high-energy functions. For dedicated MS/MS, the m/z of the molecular ion was selected in the quadrupole, and the mass range for fragmentation analysis was typically set between 50 and 1200. The collision energies were either the same as those stated above for MSe data generation or optimized for a specific metabolite. Tune parameters for all MS analyses consisted of a capillary energy of 0.5 kV, sampling cone energy of 40 V, source temperature of 150 °C, desolvation temperature of 550 °C, cone gas flow of 0 L/h, desolvation gas flow of 1200 L/h, and nebulizer pressure of 6.5 bar.
(§4) Metabolite identification was conducted by processing the generated data using the MetaboLynx XS browser (Waters), MassMetaSite and the web interface ONIRO (Mass Analytica). […] Accurate masses of metabolites were determined from the protonated molecules in the positive ESI time-of-flight MS (ESI–TOF–MS) mode and from the deprotonated molecules in the negative ESI–TOF–MS mode. […] For those metabolites where no MS/MS data could be acquired, identification was based on the accurate mass of the molecular ion and the fragmentation seen in the MSe spectrum. Relative amounts of detected metabolites were calculated as % of the total MS area by dividing the MS peak area for the metabolite (or parent compound) by the combined MS peak area for the parent compound and all identified metabolites.

[2] = MetID on in vivo rat plasma samples; parameters: species or system rat (Han Wistar); settings: after Cmpd 28; sampled at 4 h
Description: as §1, §2, §3, §4

[3] = test system: dog hepatocytes; experiment: Metabolite identification in dog hepatocyte incubations; assay type: in vitro ADME; settings: dog hepatocytes, incubated for 120 min
Description: (§5) Cryopreserved, pooled primary human, dog, and rat hepatocytes were obtained from BioIVT (previously Celsis IVT). L-15 Leibovitz buffer was placed in a water bath to reach 37 °C. Cryopreserved hepatocytes were transferred from a −150 °C freezer on dry ice and immediately immersed in a preheated water bath kept at 37 °C for thawing. When only a small ice crystal could be seen, the content was emptied into a 50 mL falcon tube filled with warm buffer (maximum four vials/falcon tube). The suspension was centrifuged at room temperature for 3 min at 50 g. The supernatant was removed, the pellet was resuspended in a small volume of buffer, and the falcon tube was refilled with buffer, followed by another centrifugation to wash away any remaining storage buffer. Thereafter, the supernatant was removed, and the pellet was dissolved in a small volume of buffer and diluted to a concentration of about 3–5 million cells/mL. After counting the cells using a Casy cell counter, the suspension was diluted to 1 million viable cells/mL and kept at room temperature until use. The viability cutoff was 80%.
(§6) An aliquot of 245 μL of hepatocyte suspension was added to a round-bottomed 96-deep-well plate using a manual multipipette. The deep-well plate was preincubated for 15 min at 37 °C and 13 Hz. Substrate solutions of the assay compounds were prepared by the robot in a 96-well plate as follows: 4 μL of 10 mM DMSO stock solution, followed by the addition of 96 μL of ACN:water (1:1, v:v) and mixing by shaking. 50 μL from each well were transferred to and combined in a new plate, resulting in 100 μL per well and a dilution of 1:1.
(§7) The reaction was started by the addition of 5 μL of 200 μM substrate solution to the preheated hepatocyte suspension, resulting in a final substrate concentration of 4 μM (0.04% DMSO, <0.5% ACN). The incubation was continued at 37 °C and 13 Hz. At each time point (0, 40, and 120 min), a 50 μL sample was taken out and quenched in 200 μL of cold ACN:methanol (1:1, v:v), and the stopped plates were centrifuged for 20 min (set at 4 °C and 4000 g). The supernatant was diluted by taking 50 μL and mixing it with 100 μL of water. Incubations of the positive controls, albendazole and dextromethorphan, were performed in parallel as described above.
as §2
(§8) The reversed-phase gradient elution was performed on an Acquity U(H)-PLC BEH C18 column (2.1 × 100 mm, 1.7 μm, Waters) set at 45 °C. The mobile phases consisted of 0.1% FA in water (A) and ACN (B). […] The injection volume was 2 μL. The MS settings were optimized for the respective MS instrument. […] A scan time of 0.1 s was used, and data were acquired in centroid mode. Collision energy was set to “off” for the low-energy function, whereas in the high-energy MSe functions, the collision energies were typically ramped from 15 to 35 V in the trap cell, with constant collision energies of 20 V in their transfer cells. Cone voltage was set to 25 V for both low- and high-energy functions. For dedicated MS/MS, the m/z of the molecular ion was selected in the quadrupole, and the mass range for fragmentation analysis was typically set between 50 and 1200. The collision energies were either the same as those stated above for MSe data generation or optimized for a specific metabolite.

[4] = test system: human hepatocytes; experiment: Metabolic stability in human hepatocytes (HH CLint); assay type: in vitro ADME; settings: 37 °C, 2 h
Description: Metabolic stability in human hepatocytes (HH CLint) was measured by incubating the cells with the test compound at 37 °C for 2 h. An aliquot of the mixture was taken at typically nine defined time points, and the metabolic reaction was stopped by adding ACN. The samples were centrifuged, and the supernatant was analyzed via LC-MS/MS. Intrinsic clearance (CLint) was calculated from the disappearance rate of the parent compound. ,

[5] = test system: human hepatocytes; experiment: Metabolite identification in human hepatocyte incubations; assay type: in vitro ADME; settings: 4 μM
Description: as §5, §6, §7, §2, §8

[6] = Thermodynamic solubility, shake-flask; settings: 10 mM sodium phosphate buffer, 25 °C, pH 7.4, aqueous buffer, thermodynamic from solid
Description: Solubility was measured as the thermodynamic solubility using a shake-flask approach. Here, DMSO was evaporated from the compound stock solution as the first step. The “dried” compounds were then placed into 10 mM sodium phosphate buffer, adjusted to pH 7.4, and equilibrated at 25 °C for 24 h. The samples were centrifuged, and the solution was analyzed by LC-MS/MS to determine the amount of compound in solution.

- % of the total MS area, Dog Plasma (Female) [1]: 0.5%
- % of the total MS area, Rat Plasma (Female) [2]: <1%
- % of the total MS area, Rat Plasma (Male) [2]: 1%
Structure (SMILES): Cc1cc(-c2ccc(C(=O)[C@@H]3CCCC[C@H]3C(=O)Nc3c[nH]nc3C)cc2)n[nH]1 [Cmpd 28 M11]

- % of the total MS area, Rat Plasma (Female) [2]: 1%
- % of the total MS area, Rat Plasma (Male) [2]: 1%
Structure (SMILES): CC(=O)Nc1cn(C)nc1C [Cmpd 28 M12]

- % of the total MS area, Dog Plasma (Female) [1]: 34%
Structure (SMILES): Cc1cc(-c2ccc(C(=O)[C@@H]3CCCC[C@H]3C(=O)Nc3cn(C)nc3C)cc2)n[nH]1 [Cmpd 28, Cc1cc(-c2ccc(C(=O)[C@@H]3CCCC[C@H]3C(=O)Nc3cn(C)nc3C)cc2)n[nH]1]

Structure (SMILES): CN(C(=O)c1ccc(Cl)cc1)C(CN1CC(O)C1)C1CC1 (centres unmarked) [Cmpd 47, CN(C(=O)c1ccc(Cl)cc1)[C@H](CN1CC(O)C1)C1CC1]
- Parent, % of the total MS area [3]: 83%
- Parent, % of the total MS area ([1]; dog plasma, sampled at 30 min): 5%
- Parent, % of the total MS area ([1]; dog urine, sampled at 7–24 h): 5%

- Parent, % of the total MS area [3]: 73%
- Metabolites detected in plasma ([1]; dog plasma): No metabolites
- Parent, % of the total MS area ([1]; dog plasma, sampled at 60 min): >99%
- Parent, % of the total MS area ([1]; dog urine, sampled at 7–24 h): 10%
Structure (SMILES): CC(C)C(CN1CC(O)C1)N(C)C(=O)c1ccc(Cl)cc1 (centres unmarked) [Cmpd 50, CC(C)[C@@H](CN1CC(C1)O)N(C)C(=O)c2ccc(cc2)Cl]

Structure (SMILES): CCCC(CN1CC(O)C1)N(C)C(=O)c1ccc(Cl)cc1 (centres unmarked) [Cmpd 51, CCC[C@@H](CN1CC(O)C1)N(C)C(=O)c1ccc(Cl)cc1]
- Parent, % of the total MS area [3]: 80%
- N-oxide, % of the total MS area ([1]; dog plasma, sampled at 60 min): not observed
- Parent, % of the total MS area ([1]; dog plasma, sampled at 60 min): 20%
- N-oxide, % of the total MS area ([1]; dog urine, sampled at 7–24 h): not observed
- Parent, % of the total MS area ([1]; dog urine, sampled at 7–24 h): 22%

Structure (SMILES): CN(C(=O)c1ccc(C#N)cc1)C(CN1CC(O)C1)c1ccccc1 (centres unmarked) [Cmpd 55, CN(C(=O)c1ccc(C#N)cc1)[C@H](CN1CC(O)C1)c1ccccc1]
- N-oxide, % of the total MS area [3]: no N-oxidation was seen
- Parent, % of the total MS area [3]: 97%
- N-oxide, % of the total MS area ([1]; dog plasma, sampled at 60 min): not observed
- Parent, % of the total MS area ([1]; dog plasma, sampled at 60 min): 49%
- N-oxide, % of the total MS area ([1]; dog urine, sampled at 7–24 h): not observed
- Parent, % of the total MS area ([1]; dog urine, sampled at 7–24 h): 61%

Structure (SMILES): COc1ccc(-c2nnc(C(=O)N3CC(Oc4ccc(CN(C)C)c(C)c4)C3)o2)cc1 [Cmpd 67, COc1ccc(-c2nnc(C(=O)N3CC(Oc4ccc(CN(C)C)c(C)c4)C3)o2)cc1]
- HH CLint [4]: 16 μL/min/1E6
- Metabolites / metabolic pathways identified [5]: N- and O-demethylation are major metabolic pathways

Structure (SMILES): COc1ccc(-c2nnc(C(=O)N3CC(Oc4ccc(CN5CC(C)(O)C5)c(C)c4)C3)o2)cc1 [Cmpd 81, COc1ccc(-c2nnc(C(=O)N3CC(Oc4ccc(CN5CC(C)(O)C5)c(C)c4)C3)o2)cc1]
- HH CLint [4]: 17 μL/min/1E6
- Metabolites / metabolic pathways identified [5]: O-demethylation pathway remains the major metabolic route
- solubility at 24 h [6]: 71 µM (≈ 33 µg/mL)

Source: publication PMC12587390, “Metabolite Identification Data in Drug Discovery, Part 1: Data Generation and Trend Analysis” (Molecular Pharmaceutics, 2025)
